Data from patent US20100119483A1, “PEPTIDE VIRAL ENTRY INHIBITORS” (Schering Corporation, priority 2004, published 2010).
Where “and” joins values, the source holds several entries; their conditions need not be identical. Equal values may be shown once. Ends that are not written are not given here.

Columns and labels:
HCV pseudoparticles = test: HCV pseudoparticle (HCVpp) entry assay in Huh7 hepatoma cells, luciferase readout; format: cell-based, hepatitis C virus; conditions: for HCVpp % inh: peptide library screen, first screened at 100 ug/ml, cell entry inhibition vs uninhibited control; for luciferase units, HCV entry: duplicates, listed as scrambled SEQ ID NO: 138
Procedure, shortened: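 Huh7 cells were pre-treated with peptide for 1 h at 37 °C before exposure to HCV E1/E2-pseudotyped HIV luciferase particles made in 293T cells, followed by 72 h culture and luciferase readout. Peptides were tested at 10 points, 3-fold, from 100 ug/ml; particles lacking envelope served as non-specific entry control.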

[1] = system: amphotropic murine leukemia virus; test: AMLV pseudotyped virus entry counter-screen, same infection protocol; format: cell-based; conditions: for AMLVpp % inh: peptide library screen, cell entry inhibition vs uninhibited control; for luciferase units, AMLV entry: duplicates, listed as scrambled SEQ ID NO: 106
Method: Infection of hepatoma cell lines with HCV pseudotype particles and screen for inhibitory peptides. The hepatoma cells, Huh7, was seeded at 8000 cells in 90 ul medium in 96-well plate. In the case of the inhibitor screen, the inhibitor was incubated with cells for one hour at 37° C. and then 50 ul viral supernatant was added to the cells 24 hours after seeding. The viral stock was pre-tittered and diluted to yield approximately 10,000 to 20,000 RLU. The cells were incubated at 37° C. with 5% CO2 for additional 72 hours and were harvested for luciferase assay. Peptide stocks were prepared in 100% DMSO at 10 mg/ml and were first screened at 100 ug/ml and then a dose responsive curve was generated with 10 points 3-fold titration starting from 100 ug/ml.
The specificity of the peptides were counter-screened with AMLV and HIV pseudotyped viruses using the same infection protocol.

Substance: I-T-Y-N-E-S-H-S-S-D-Q-R-P-Y-C-W [SEQ ID NO: 43]
- HCVpp % inh (HCV pseudoparticles): −13%
- AMLVpp % inh [1]: 17%

Substance: K-T-L-T-C-P-T-D-C-F-R-K-H-P-E-A [SEQ ID NO: 58]
- HCVpp % inh (HCV pseudoparticles): 50%
- AMLVpp % inh [1]: 13%

Substance: L-E-A-A-C-N-W-T-R-G-E-R-C-N-L-E [SEQ ID NO: 67]
- HCVpp % inh (HCV pseudoparticles): 26%
- AMLVpp % inh [1]: 37%

Substance: L-E-D-R-D-R-S-E-L-S-P-L-L-L-S-T (LEDRDRSELSPLLLST; not fully specified (C-terminus); printed as L-E-D-R-D-R-S-E-L-S-P-L-L-L-S-T) [SEQ ID NO: 69]
- HCVpp % inh (HCV pseudoparticles): −15%
- AMLVpp % inh [1]: 1%

Substance: L-F-S-P-G-S-S-Q-K-I-Q-L-V-N-T-N [SEQ ID NO: 33]
- HCVpp % inh (HCV pseudoparticles): 61%
- AMLVpp % inh [1]: −49%

Substance: L-F-T-F-S-P-R-R-H-E-T-V-Q-D-C-N [SEQ ID NO: 17]
- HCVpp % inh (HCV pseudoparticles): 9%
- AMLVpp % inh [1]: 16%

Substance: L-I-H-L-H-Q-N-V-V-D-V-Q-Y-L-Y-G [SEQ ID NO: 74]
- HCVpp % inh (HCV pseudoparticles): 22%
- AMLVpp % inh [1]: 5%

Substance: L-L-L-A-D-A-R-V-C-A-C-L-W-M-M-L [SEQ ID NO: 79]
- HCVpp % inh (HCV pseudoparticles): 77%
- AMLVpp % inh [1]: 16%

Substance: L-P-A-L-S-T-G-L-I-H-L-H-Q-N-V-V [SEQ ID NO: 73]
- HCVpp % inh (HCV pseudoparticles): 19%
- AMLVpp % inh [1]: 0%

Substance: L-P-C-S-F-T-T-L-P-A-L-S-T-G-L-I (LPCSFTTLPALSTGLI; HCV peptide) [SEQ ID NO: 72]
- HCVpp % inh (HCV pseudoparticles): −2%
- AMLVpp % inh [1]: 20%

Substance: L-V-V-S-Q-L-L-R-I-P-Q-A-V-V-D-M [SEQ ID NO: 23]
- HCVpp % inh (HCV pseudoparticles): 3%
- AMLVpp % inh [1]: −1%

Substance: LKLFEVYLILWLA (HCV peptide) [SEQ ID NO: 138, scrambled 13-mer]
- luciferase units, HCV entry (HCV pseudoparticles; 0.04115226 uM of peptide): 12287 luciferase units and 13159 luciferase units and 13838 luciferase units and 13589 luciferase units and 10645 luciferase units and 10230 luciferase units
- luciferase units, HCV entry (HCV pseudoparticles; 0.1234568 uM of peptide): 9257 luciferase units and 8961 luciferase units and 11382 luciferase units and 10746 luciferase units and 7229 luciferase units and 6598 luciferase units
- luciferase units, HCV entry (HCV pseudoparticles; 0.3703704 uM of peptide): 7620 luciferase units and 8597 luciferase units and 9180 luciferase units and 5716 luciferase units and 8494 luciferase units and 8291 luciferase units
- luciferase units, HCV entry (HCV pseudoparticles; 1.111111 uM of peptide): 6456 luciferase units and 7681 luciferase units and 9683 luciferase units and 9482 luciferase units and 9053 luciferase units and 7359 luciferase units
- luciferase units, HCV entry (HCV pseudoparticles; 3.333333 uM of peptide): 7729 luciferase units and 11535 luciferase units and 12632 luciferase units and 8653 luciferase units and 8028 luciferase units and 10288 luciferase units
- luciferase units, HCV entry (HCV pseudoparticles; 30 uM of peptide): 7047 luciferase units and 5340 luciferase units and 7406 luciferase units and 5158 luciferase units and 5107 luciferase units and 5826 luciferase units
- activity compared to the wild type 13-mer peptide (HCV pseudoparticles; HCVpp entry inhibition, in words): still showed some activity, though weakened
- luciferase units, AMLV entry ([1]; 0.04115226 uM of peptide): 43854 luciferase units and 39721 luciferase units and 46556 luciferase units and 44480 luciferase units and 40734 luciferase units and 47413 luciferase units
- luciferase units, AMLV entry ([1]; 0.1234568 uM of peptide): 39298 luciferase units and 28711 luciferase units and 46132 luciferase units and 49974 luciferase units and 42958 luciferase units and 51726 luciferase units
- luciferase units, AMLV entry ([1]; 0.3703704 uM of peptide): 48158 luciferase units and 45212 luciferase units and 49139 luciferase units and 49219 luciferase units and 51358 luciferase units and 50551 luciferase units
- luciferase units, AMLV entry ([1]; 1.111111 uM of peptide): 49084 luciferase units and 39443 luciferase units and 53349 luciferase units and 51341 luciferase units and 46069 luciferase units and 46019 luciferase units
- luciferase units, AMLV entry ([1]; 3.333333 uM of peptide): 50674 luciferase units and 41738 luciferase units and 60859 luciferase units and 50020 luciferase units and 51236 luciferase units and 49388 luciferase units
- luciferase units, AMLV entry ([1]; 30 uM of peptide): 87785 luciferase units and 60410 luciferase units and 83010 luciferase units and 77083 luciferase units and 85612 luciferase units and 79287 luciferase units

Substance: M-A-W-D-M-M-M-N-W-S-P-T-A-A-L-V (MAWDMMMNWSPTAALV; not fully specified (C-terminus); printed as M-A-W-D-M-M-M-N-W-S-P-T-A-A-L-V) [SEQ ID NO: 21]
- HCVpp % inh (HCV pseudoparticles): 32%
- AMLVpp % inh [1]: 3%

Substance: N-D-S-L-N-T-G-F-L-A-A-L-F-Y-V-H [SEQ ID NO: 37]
- HCVpp % inh (HCV pseudoparticles): 14%
- AMLVpp % inh [1]: 15%

Substance: N-I-G-G-I-G-N-K-T-L-T-C-P-T-D-C [SEQ ID NO: 57]
- HCVpp % inh (HCV pseudoparticles): 39%
- AMLVpp % inh [1]: 20%

Substance: N-R-T-A-L-N-C-N-D-S-L-N-T-G-F-L (NRTALNCNDSLNTGFL; not fully specified (C-terminus); printed as N-R-T-A-L-N-C-N-D-S-L-N-T-G-F-L) [SEQ ID NO: 36]
- HCVpp % inh (HCV pseudoparticles): 23%
- AMLVpp % inh [1]: 18%

Substance: N-S-S-R-C-W-V-A-L-T-P-T-L-A-A-R [SEQ ID NO: 9]
- HCVpp % inh (HCV pseudoparticles): 5%
- AMLVpp % inh [1]: 28%

Substance: N-S-T-G-F-T-K-T-C-G-C-P-P-C-N-I [SEQ ID NO: 55]
- HCVpp % inh (HCV pseudoparticles): 23%
- AMLVpp % inh [1]: 3%

Substance: N-T-L-G-I-T-S-L-F-S-P-G-S-S-Q-K [SEQ ID NO: 32]
- HCVpp % inh (HCV pseudoparticles): 11%
- AMLVpp % inh [1]: 2%

Substance: N-W-A-K-V-L-I-V-M-L-L-F-A-G-V-D [SEQ ID NO: 28]
- HCVpp % inh (HCV pseudoparticles): 13%
- AMLVpp % inh [1]: −1%

Substance: N-W-S-P-T-A-A-L-V-V-S-Q-L-L-R-I [SEQ ID NO: 22]
- HCVpp % inh (HCV pseudoparticles): 54%
- AMLVpp % inh [1]: −11%

Substance: P-C-G-I-V-P-A-A-Q-V-C-G-P-V-Y-C [SEQ ID NO: 46]
- HCVpp % inh (HCV pseudoparticles): 29%
- AMLVpp % inh [1]: −2%

Substance: P-C-T-V-N-F-T-I-F-K-V-R-M-Y-V-G (PCTVNFTIFKVRMYVG; HCV peptide) [SEQ ID NO: 64]
- HCVpp % inh (HCV pseudoparticles): −2%
- AMLVpp % inh [1]: −30%

Substance: P-R-C-L-V-H-Y-P-Y-R-L-W-H-Y-P-C (PRCLVHYPYRLWHYPC; HCV peptide) [SEQ ID NO: 62]
- HCVpp % inh (HCV pseudoparticles): 10%
- AMLVpp % inh [1]: −42%

Substance: P-Y-R-L-W-H-Y-P-C-T-V-N-F-T-I-F (PYRLWHYPCTVNFTIF; HCV peptide) [SEQ ID NO: 63]
- HCVpp % inh (HCV pseudoparticles): 44%
- AMLVpp % inh [1]: 3%

Substance: Q-K-I-Q-L-V-N-T-N-G-S-W-H-I-N-R (QKIQLVNTNGSWHINR; HCV peptide) [SEQ ID NO: 34]
- HCVpp % inh (HCV pseudoparticles): 6%
- AMLVpp % inh [1]: 13%

Substance: R-F-G-V-P-T-Y-S-W-G-E-N-E-T-D-V [SEQ ID NO: 50]
- HCVpp % inh (HCV pseudoparticles): 34%
- AMLVpp % inh [1]: 33%

Substance: R-H-E-T-V-Q-D-C-N-C-S-I-Y-P-G-H [SEQ ID NO: 18]
- HCVpp % inh (HCV pseudoparticles): 5%
- AMLVpp % inh [1]: 17%

Substance: R-I-P-Q-A-V-V-D-M-V-A-G-A-H-W-G [SEQ ID NO: 24]
- HCVpp % inh (HCV pseudoparticles): 25%
- AMLVpp % inh [1]: −2%

Substance: S-C-S-P-I-D-A-F-A-Q-G-W-G-P-I-T [SEQ ID NO: 41]
- HCVpp % inh (HCV pseudoparticles): −11%
- AMLVpp % inh [1]: 25%

Substance: S-S-D-Q-R-P-Y-C-W-H-Y-A-P-R-P-C [SEQ ID NO: 44]
- HCVpp % inh (HCV pseudoparticles): 14%
- AMLVpp % inh [1]: 15%

Substance: S-T-T-E-W-Q-V-L-P-C-S-F-T-T-L-P [SEQ ID NO: 71]
- HCVpp % inh (HCV pseudoparticles): 44%
- AMLVpp % inh [1]: 18%

Substance: S-V-F-L-V-A-Q-L-F-T-F-S-P-R-R-H [SEQ ID NO: 16]
- HCVpp % inh (HCV pseudoparticles): 3%
- AMLVpp % inh [1]: −148%

Substance: S-W-G-E-N-E-T-D-V-L-L-L-N-N-T-R [SEQ ID NO: 51]
- HCVpp % inh (HCV pseudoparticles): 23%
- AMLVpp % inh [1]: 34%

Substance: T-C-G-G-P-P-C-N-I-G-G-I-C-N-K-T [SEQ ID NO: 56]
- HCVpp % inh (HCV pseudoparticles): 53%
- AMLVpp % inh [1]: 22%

Substance: T-G-G-T-N-A-K-N-T-L-G-I-T-S-L-F [SEQ ID NO: 31]
- HCVpp % inh (HCV pseudoparticles): 41%
- AMLVpp % inh [1]: −2%
